One series deals with mPTP. The series can be described thus: mPTP activity (Ca2+ retention, Fluo5N FLIPR) assay in isolated rat liver mitochondria. The series is classed as biochemical. Particulars: average value from multiple experiments (n ≥ 2). The text has this: Pharmacological inhibition or modulation of the mPTP can be measured in well characterised ‘Ca^2+ retention’ assays performed in isolated mitochondria. In vitro, isolated mitochondria rapidly sequester exogenous Ca^2+ until the intramitochondrial Ca^2+ concentration reaches the threshold for mPTP activation. Once the pore is activated, mitochondrial integrity is compromised and the stored Ca^2+ is released. The distribution of Ca^2+ between extra- and intra-mitochondrial compartments can be measured in real time with the use of membrane-impermeant Ca^2+ sensitive fluorescent dyes. Depending on the configuration of the assay, inhibition or modulation of the mPTP either delays the opening of the pore or increases the concentration of Ca^2+ required to induce mPTP opening.
MPTP activity was measured in mitochondria freshly isolated from female Sprague Dawley (250 to 300 gram) rat livers using the following method. Cervical dislocation was performed on the rat. The liver was then perfused in-situ with ˜40 ml cold Dulbecco's Phosphate Buffered Saline (DPBS) prior to dissection and transferred into 30 ml Isolation Buffer (250 mM Sucrose, 10 mM KCl, 1 mM EGTA, 1 mM EDTA, 25 mM HEPES, adjusted to pH 7.5 with 1M NaOH). Each lobe of the liver was then removed from the buffer, minced using tweezers and a scalpel into ˜5 mm pieces then transferred into a 50 ml Potterton dounce homogenization tube on ice containing 30 ml ice-cold centrifugation buffer (300 mM Trehalose, 25 mM HEPES, 1 mM EGTA, 1 mM EDTA, 10 mM KCl, adjusted to pH 7.5 with 1M NaOH and supplemented with 0.1% bovine serum albumin (BSA) and complete protease inhibitor cocktail (one tablet of inhibitor per 50 mls of buffer). Homogenisation was carried out using a teflon pestle at 1800 rpm. The slurry was centrifuged at 800 g for 10 min at 4° C., then the supernatant centrifuged at 10,000 g for 10 min. The pellet was washed once with FLIPR assay buffer (75 mM Mannitol, 25 mM Sucrose, 5 mM Potassium Phosphate Monobasic, 20 mM Tr is base, 100 mM KCl, 0.1% BSA adjusted to pH 7.4 with 5M HCl) centrifuged again, then resuspended in FLIPR assay buffer to a concentration of 8.8 mg/ml protein.
Tested compounds (10 mM stock in DMSO) were serially diluted in DMSO in half log steps to generate 10 test concentrations (final concentrations in assay 30 μM to 1 nM). An intermediate dilution of 5 μl DMSO samples into 247 μl FLIPR assay buffer was carried out prior to transfer of 5 μl into duplicate wells of a 384 well polypropylene assay plate. Control wells were 0.5% (v/v) DMSO and 5 μM cyclosporin A.
A stock mitochondria/Fluo5N assay solution was prepared in 5.6 ml FLIPR assay buffer (at RT) supplemented with succinate disodium salt (10 mM), rotenone (1 μM), Fluo5N pentapotassium salt (2 μM) and 1 ml mitochondria suspension, then transferred (15 μl) into the assay plate containing test compounds and incubated for 10 min at RT. Assay plates were then transferred to a FLIPR Tetra plate reader (Molecular Devices). Dye fluorescence was then measured every 3 sec for a total of 10 min. After 12 sec, a 2.5 μl bolus of CaCl2 (75 μM) was added from a source plate containing 675 μM CaCl2 in FLIPR assay buffer. IC50 values for tested compounds were calculated using the fluorescence value collected at the 10 min timepoint with % inhibition calculated using the DMSO control and cyclosporin A values as […] respectively.

The nature of series [1]: PBS and FaSSIF solubility. As to conditions: for solubility at 2 h: FaSSIF, kinetic from dmso stock, Fasted state simulated intestinal fluid, 2 hr at 25° C. It is filed as physicochemical. Here is the method:
Test compounds were prepared as 10 mM stocks in DMSO and 15 μl samples transferred in duplicate into 1.5 mL glass flat bottom vials (BioTech Solutions). Fasted state simulated intestinal fluid (FaSSIF) or PBS (pH 7.4) was added to each vial to final volume of 500 μl. One PTFE encapsulated stir stick (V&P Scientific) was placed in each vial before sealing with PTFE/SIL plugs (BioTech Solutions). Vials were shaken at 1100 rpm for 2 hr at 25° C. Samples were then filtered through MultiScreen Solvinert filter plates (Millipore) via vacuum filtration. Aliquots of filtrate (5 μl) plus 5 μl DMSO were diluted in 490 μl 50% acetonitrile in water containing internal standard. The filtrate was analysed and quantified against a standard of known concentration using LC-MS/MS. Solubility values of the test compound and control compound were calculated as follows: [Sample]=(Area ratiossample*INJ VOL STD*DFSample*[STD])/(Area ratio STD*INJ VOLSample).

The nature of series [2]: Hepatocyte clearance assay, primary human hepatocytes. The series is classed as in vitro ADME. Particulars: average value from two experiments. Here is the method: (§1) In vitro clearance studies were performed in primary rat and human hepatocytes (BioIVT). Vials of cryopreserved rat or human hepatocytes were thawed in a 37° C. water bath for 2 min. Cells were transferred into thawing medium (Williams' Medium E containing 30% Percoll, 1×GlutaMAX-1, 15 mM HEPES, 5% fetal bovine serum (FBS), 4 μg/ml insulin, 1 μM dexamethasone), centrifuged at 100 g for 10 min then resuspended in culture medium (Leibovitz's L-15 Medium) at a concentration of 0.5×10^6 viable cells/mL (number of viable cells assessed using AO/PI staining). Hepatocytes (198 μL) were transferred into wells of a 96-well non-coated plate and placed in a 37° C. incubator for 10 min. Test compound solutions were prepared from 10 mM stocks in DMSO, diluted to 100 μM in 50% (v/v in water) acetonitrile. Test compound samples (2 μl) were added to each well of hepatocytes and incubated at 37° C. […] Peak areas were determined from extracted ion chromatograms. The slope value, k, was determined by linear regression of the natural logarithm of the remaining percentage of the parent drug vs. incubation time curve. The in vitro half-life (in vitro t½) was determined from the slope value: in vitro t½=0.693/k. […]

The nature of series [3]: Hepatocyte clearance assay, primary rat hepatocytes. As to conditions: average value from two experiments. It is filed as in vitro ADME. On the procedure: as §1

Converted amounts (≈) assume the structure as drawn.

`Cc1n[nH]c2cc(/C=C/C(=O)N[C@@H]3CCCC[C@H]3C)ccc12` (racemic) [Example 43, Racemic-(E)-3-(3-methyl-1H-indazol-6-yl)-N-((1R,2R)-2-methylcyclohexyl)acrylamide]: in the series with mPTP, the “mPTP Rat liver pIC50” value was determined as 6.3.
In series [1], `Cc1n[nH]c2cc(/C=C/C(=O)N[C@H]3c4ccccc4OC[C@@H]3C)ccc12` (single isomer, unassigned) [Example 65c] displayed a solubility at 2 h of 9.2 µM (≈ 3.2 µg/mL). Also, the hepatocyte CLint at 1 µM in series [2] (primary human hepatocytes (cryopreserved), read-out: Human heps Clint uL/min/10^6 cells) stood at 9.4 µL/min/1e6 cells; in series [3] (primary rat hepatocytes (cryopreserved), read-out: Rat heps Clint uL/min/10^6 cells), 37.9 µL/min/1e6 cells. In the series with mPTP, the “mPTP Rat liver pIC50” value is listed as 7.7.
Regarding `Cc1c(F)cccc1NC(=O)/C=C/c1ccc2cn[nH]c2c1` [Comparative Example 1, (E)-N-(2-methyl-3-fluorophenyl)-3-(1H-indazol-6-yl)acrylamide, reference compound], the “Solubility PBS uM (pH 7.4)” value in series [1] (PBS pH 7.4, 2 hr at 25° C.) is listed as 0.9 uM. The “Human heps Clint uL/min/10^6 cells” value in series [2] came to 13 uL/min/10^6 cells. In addition, the “Rat heps Clint uL/min/10^6 cells” value in series [3] is given as 89 uL/min/10^6 cells.
With `Cc1c(F)cccc1NC(=O)/C=C/c1ccc2oc(=O)[nH]c2c1` [Example 6, (E)-N-(3-fluoro-2-methylphenyl)-3-(2-oxo-2,3-dihydrobenzo[d]oxazol-5-yl)acrylamide], the concentration in solution in series [1] (solubility at 2 h) was 18 µM (≈ 5.62 µg/mL).
As for `O=C(/C=C/c1cc2[nH]nnc2cc1F)NC1CCc2ccccc21` (stereo not drawn) [Example 27, (E)-N-(2,3-dihydro-1H-inden-1-yl)-3-(5-fluoro-1H-benzo[d][1,2,3]triazol-6-yl) acrylamide], the “mPTP Rat liver pIC50” value with mPTP came out at 6.6.
Still for that read-out and setting: under `O=C(/C=C/c1ccc2c(C(F)(F)F)n[nH]c2c1)NC1CCc2ccccc21` (stereo not drawn) [Example 28, (E)-N-(2,3-dihydro-1H-inden-1-yl)-3-(3-(trifluoromethyl)-1H-indazol-6-yl) acrylamide] stands 6.7; under `CO[C@H]1Cc2ccccc2[C@@H]1NC(=O)/C=C/c1ccc2c(Cl)n[nH]c2c1` [Example 72, (E)-3-(3-chloro-1H-indazol-6-yl)-N-((1S,2S)-2-methoxy-2,3-dihydro-1H-inden-1-yl)acrylamide], 8.2.

The values above are taken from patent publication US12630516B2, “Compounds” (NRG Therapeutics Ltd., priority 2020, dated 2026).
